Assay results published in PMC3089805 (Chemmedchem, 2010).
Values after ≈ are worked out from the molar mass of the structure shown. Read-outs that look alike come from different tables or passages of the source. Marks after values point to notes of the source that are not given here.

How the values were obtained:
S. aureus (MRSA) = experiment: MIC determination, liquid microdilution, S. aureus; format: cell-based; conditions: Staphylococcus aureus, read-out: MIC S. aureus (MRSA)
C. difficile VPI 10463 = experiment: MIC determination, agar dilution, C. difficile; format: cell-based, Clostridium difficile; conditions: Clostridioides difficile, VPI10463, 18 h, read-out: MIC C. difficile
H. pylori PFOR enzyme = experiment: Direct PFOR enzyme assay; format: biochemical; conditions: [Drug] = 40 μM
[1] = Human foreskin cell toxicity; format: cell-based; conditions: human
S. epidermidis = experiment: MIC determination, liquid microdilution, S. epidermidis; format: cell-based; conditions: Staphylococcus epidermidis, read-out: MIC S. epidermidis
E. coli = experiment: MIC against E. coli; format: cell-based; conditions: Escherichia coli
C. jejuni strain H840 = experiment: MIC determination, liquid microdilution, C. jejuni; format: cell-based; conditions: Campylobacter jejuni, H840, 27 h, read-out: MIC C. jejuni
H. pylori strain 26695 = experiment: MIC determination, liquid microdilution, H. pylori; format: cell-based; conditions: Helicobacter pylori, 26695, 27 h, read-out: MIC H. pylori
Human foreskin cells = experiment: Human foreskin cell toxicity; format: cell-based

| MIC (S. aureus (MRSA)) [µM] | MIC (C. difficile VPI 10463) [µM] | PFOR Inhibition (H. pylori PFOR enzyme; listed as 1, 40 µM) [%] | MIC (S. epidermidis) [µM] | MIC (E. coli; read-out: E. coli MIC) [µM] | MIC (E. coli; read-out: E. coli MIC, stated in text) [µg/mL] | MIC (C. jejuni strain H840) [µM] | MIC (H. pylori strain 26695) [µM] | PFOR Inhibition (H. pylori PFOR enzyme) | Compound | PFOR Inhibition (H. pylori PFOR enzyme; listed as NTZ, 40 µM) | CC50 at 48 h ([1]; human foreskin cells) [µM] | toxicity to human foreskin cells (in words) (Human foreskin cells) | CC50 at 48 h [1] [µM] |
| --- | --- | --- | --- | --- | --- | --- | --- | --- | --- | --- | --- | --- | --- |
| 39.1 (≈ 12 µg/mL) | 1.2 (≈ 0.369 µg/mL) | 54 ± 7 | 52.1 (≈ 16 µg/mL) | > 104 | > 32 | 39.1 (≈ 12 µg/mL) | 13 (≈ 3.99 µg/mL) |  | CC(=O)Oc1ccccc1C(=O)Nc1ncc([N+](=O)[O-])s1 [Nitazoxanide, reference compound] | [c] For PFOR inhibition assays, drug concentration was fixed at 40 μM which bench marks NTZ at ~50% inhibition. | > 52.1 |  |  |
| 171 (≈ 32 µg/mL) |  |  | 21.4 (≈ 4.01 µg/mL) |  |  | 10.7 (≈ 2 µg/mL) | 0.7 (≈ 0.131 µg/mL) |  | CC(=O)Nc1ncc([N+](=O)[O-])s1 [Analogue 48, N-(5-Nitrothiazol-2-yl)acetamide] |  | > 85.5 |  |  |
|  | 0.5 (≈ 0.159 µg/mL) |  | 12.6 (≈ 4 µg/mL) |  |  | 4.7 (≈ 1.49 µg/mL) | 3.5 (≈ 1.11 µg/mL) | 41.5 ± 5.5% | O=C(Nc1ncc([N+](=O)[O-])s1)c1cccc(C(F)(F)F)c1 [Analogue 23, N-(5-Nitrothiazol-2-yl)-3-(trifluoromethyl)benzamide] |  | > 50.4 | not toxic |  |
| 11.4 (≈ 4.37 µg/mL) |  |  | 5.7 (≈ 2.18 µg/mL) |  |  | 8.5 (≈ 3.26 µg/mL) | 1.1 (≈ 0.422 µg/mL) |  | O=C(Nc1ncc([N+](=O)[O-])s1)c1ccc(-c2cccc(C(F)(F)F)c2)o1 [Analogue 68, N-(5-Nitrothiazol-2-yl)-5-(3-(trifluoromethyl)phenyl)furan-2-carboxamide] |  | > 41.7 |  |  |
| 119 (≈ 32 µg/mL) | 2.8 (≈ 0.751 µg/mL) |  | 119 (≈ 32 µg/mL) |  |  |  |  | 61 ± 13% | O=C(Nc1ncc([N+](=O)[O-])s1)c1cccnc1F [Analogue 59, 2-Fluoro-N-(5-nitrothiazol-2-yl)nicotinamide] |  | > 59.7 |  |  |
| 2.6 (≈ 1 µg/mL) |  |  | 1.9 (≈ 0.732 µg/mL) |  |  | 41.5 (≈ 16 µg/mL) | 5.2 (≈ 2 µg/mL) |  | O=C(Nc1ncc([N+](=O)[O-])s1)c1cc(C(F)(F)F)cc(C(F)(F)F)c1 [Analogue 38, N-(5-Nitrothiazol-2-yl)-3,5-bis(trifluoromethyl)benzamide] |  | 10.4 | particularly toxic |  |
|  | 1.5 (≈ 0.383 µg/mL) |  | 31.3 (≈ 7.99 µg/mL) |  |  |  |  | 56 ± 6 ^b % | O=C(Nc1ncc([N+](=O)[O-])s1)c1cccs1 [Analogue 76, N-(5-Nitrothiazol-2-yl)thiophene-2-carboxamide] |  | > 62.7 |  |  |
| 6 (≈ 2 µg/mL) |  |  | 12 (≈ 4 µg/mL) |  |  | 9 (≈ 3 µg/mL) | 1.1 (≈ 0.367 µg/mL) |  | O=C(Nc1ncc([N+](=O)[O-])s1)c1cccc(OC(F)(F)F)c1 [Analogue 31, N-(5-Nitrothiazol-2-yl)-3-(trifluoromethoxy)benzamide] |  | > 48 |  |  |

Continued, molecule first:

| Compound | MIC (S. aureus (MRSA)) [µM] | MIC (C. difficile VPI 10463) [µM] | PFOR Inhibition (H. pylori PFOR enzyme; listed as 1, 40 µM) [%] | MIC (S. epidermidis) [µM] | MIC (E. coli; read-out: E. coli MIC) [µM] | MIC (E. coli; read-out: E. coli MIC, stated in text) [µg/mL] | MIC (C. jejuni strain H840) [µM] | MIC (H. pylori strain 26695) [µM] | PFOR Inhibition (H. pylori PFOR enzyme) | PFOR Inhibition (H. pylori PFOR enzyme; listed as NTZ, 40 µM) | CC50 at 48 h ([1]; human foreskin cells) [µM] | toxicity to human foreskin cells (in words) (Human foreskin cells) | CC50 at 48 h [1] [µM] |
| --- | --- | --- | --- | --- | --- | --- | --- | --- | --- | --- | --- | --- | --- |
| O=C(Nc1ncc([N+](=O)[O-])s1)c1cccc(C(F)(F)F)c1Cl [Analogue 40, 2-Chloro-N-(5-nitrothiazol-2-yl)-3-(trifluoromethyl)benzamide] | 11.4 (≈ 4.01 µg/mL) |  |  | 11.4 (≈ 4.01 µg/mL) |  |  |  | 0.9 (≈ 0.317 µg/mL) |  |  | > 45.5 |  |  |
| O=C(Nc1ncc([N+](=O)[O-])s1)c1ccsc1 [Analogue 74, N-(5-Nitrothiazol-2-yl)thiophene-3-carboxamide] | 23.5 (≈ 6 µg/mL) | 2.9 (≈ 0.74 µg/mL) |  | 15.7 (≈ 4.01 µg/mL) |  |  | 5.9 (≈ 1.51 µg/mL) | 0.7 (≈ 0.179 µg/mL) | 58.5 ± 3.5 ^b % |  | > 62.7 |  |  |
| O=C(Nc1ncc([N+](=O)[O-])s1)c1ccc(Cl)c(C(F)(F)F)c1 [Analogue 41, 4-Chloro-N-(5-nitrothiazol-2-yl)-3-(trifluoromethyl)benzamide] | 2.8 (≈ 0.985 µg/mL) | 1.4 (≈ 0.492 µg/mL) |  | 2.8 (≈ 0.985 µg/mL) |  |  | 2.8 (≈ 0.985 µg/mL) | 2.8 (≈ 0.985 µg/mL) | 33 ± 1% |  | > 45.5 |  |  |
| O=C(Nc1ncc([N+](=O)[O-])s1)c1ccco1 [Analogue 61, N-(5-Nitrothiazol-2-yl)furan-2-carboxamide] | 50.2 (≈ 12 µg/mL) | 2.4 (≈ 0.574 µg/mL) |  | 66.9 (≈ 16 µg/mL) |  |  | 8.4 (≈ 2.01 µg/mL) | 1 (≈ 0.239 µg/mL) | 42 ^b % |  | 66.9 |  |  |
| CCCCCC(=O)Nc1ncc([N+](=O)[O-])s1 [Analogue 50, N-(5-Nitrothiazol-2-yl)hexanamide] | 132 (≈ 32 µg/mL) | 8.2 (≈ 1.99 µg/mL) |  |  |  |  | 2.1 (≈ 0.511 µg/mL) | 0.5 (≈ 0.122 µg/mL) | 64 ± 6 ^b % |  | > 65.8 |  |  |
| O=C(Nc1ncc([N+](=O)[O-])s1)c1cc2ccccc2s1 [Analogue 84, N-(5-Nitrothiazol-2-yl)benzo[b]thiophene-2-carboxamide] | 6.6 (≈ 2.02 µg/mL) |  |  | 13.1 (≈ 4 µg/mL) |  |  | 9.8 (≈ 2.99 µg/mL) | 2.5 (≈ 0.763 µg/mL) |  |  | > 52.6 |  |  |
| O=C(Nc1ncc([N+](=O)[O-])s1)c1ccoc1 [Analogue 60, N-(5-Nitrothiazol-2-yl)furan-3-carboxamide] |  | 1.7 (≈ 0.407 µg/mL) |  | 33.4 (≈ 7.99 µg/mL) |  |  |  |  | 58 ± 2 ^b % |  | > 66.9 |  |  |
| O=C(Nc1ncc([N+](=O)[O-])s1)c1sc2ccccc2c1Cl [Analogue 85, 3-Chloro-N-(5-nitrothiazol-2-yl)benzo[b]thiophene-2-carboxamide] |  |  |  |  |  |  |  |  |  |  | > 47.1 |  |  |
| O=C(Nc1ncc([N+](=O)[O-])s1)c1ccc(F)cc1 [Analogue 8, 4-Fluoro-N-(5-nitrothiazol-2-yl)benzamide] |  | 3.3 (≈ 0.882 µg/mL) |  |  |  |  | 2.8 (≈ 0.748 µg/mL) | 0.9 (≈ 0.241 µg/mL) | 85 ^b % |  | 29.9 |  |  |
| O=C(Nc1ncc([N+](=O)[O-])s1)c1sc2cc(F)ccc2c1Cl [Analogue 86, 3-Chloro-6-fluoro-N-(5-nitrothiazol-2-yl)benzo[b]thiophene-2-carboxamide] | 2.1 (≈ 0.751 µg/mL) |  |  | 5.6 (≈ 2 µg/mL) |  |  | 5.6 (≈ 2 µg/mL) | 1 (≈ 0.358 µg/mL) |  |  | 33.5 |  |  |
| O=C(Nc1ncc([N+](=O)[O-])s1)c1ccc([N+](=O)[O-])o1 [Analogue 64, 5-Nitro-N-(5-nitrothiazol-2-yl)furan-2-carboxamide] | 113 (≈ 32 µg/mL) |  |  | 28.1 (≈ 7.99 µg/mL) |  |  | 7 (≈ 1.99 µg/mL) | 21.1 (≈ 6 µg/mL) |  |  | > 56.3 |  |  |
| O=C(Nc1ncc([N+](=O)[O-])s1)c1cccc([N+](=O)[O-])c1 [Analogue 26, 3-Nitro-N-(5-nitrothiazol-2-yl)benzamide] | 10.2 (≈ 3 µg/mL) |  |  | 10.2 (≈ 3 µg/mL) |  |  | 27.2 (≈ 8 µg/mL) | 1.3 (≈ 0.383 µg/mL) |  |  |  |  | 27.2 |
